This is an account of results in patent US10555989B2, “Treatment of learning disabilities and other neurological disorders with SK channel inhibitor(s)” (priority 2015, dated 2020).

Series [1] has as its system CD-1 mice. The procedure:
Pregnant mice CD-1 mice purchased from Charles River Company and bred under a light-dark cycle at a constant temperature were injected i.p. with 2 g/kg with either PBS (control) or ethanol (EtOH) thus exposing fetal mice in utero to PBS or EtOH. Thirty days after mice were born (day P30) motor skills of the control and EtOH-treated groups were compared using Rotarod test. The treatment timeline for the mice is shown in FIG. 1A and the Rotarod test is depicted by FIG. 1B.
For assessment of motor learning behavior, mice (P30) were carried out using an accelerating Rotarod apparatus (TSE Instruments) over 3 repeated trials (5 minutes per trial)/day for 2 consecutive days before testing phase. The Rotarod testing involves placing the mice on a rotating bar and determining the length of time that they can retain their balance as the rate of rotation is increased (max 80 rpm, for 5 min). On the day of testing, mice were kept in their home cages and acclimated to the testing room for at least 15 min. 2 min acclimation session at 2 rpm one time prior to the test phase was performed. Testing phase consisted of 3 trials per day separated by 30 min each for 2 consecutive days (total 6 trials). Each trail was terminated when mouse fell off or reached maximum 5 min (maximum speed). During the trials, mice that moved 180° (same direction of rotation) were gently turned around, face forward, to opposite direction of rotation. The latency to fall from a rotating rod was scored automatically with infrared sensors in a Rotamex 5 rotarod (Columbus Inst.; Columbus, Ohio).

Series [2] concerns heat shock factor 1 (Hsf1). The following applies: alcohol regimen i.p. at E16.5 and E17.5.
Method: In utero electroporation was carried out as described [1-3]. Briefly, the plasmid for Flippase-FRT based reporter of heat shock factor 1 (Hsf1) activation was co-electroporated with EGFP-f plasmid (Addgene, 2 μg/μl each).
By using this method, the cells that had robust prenatal Hsf1 activation were labeled by RFP reporter.
The RFP reporter expression was induced upon Hsf1 activation in a subset of GFP-positive neurons. […] Pups were screened using an epifluorescence stereomicroscope at postnatal days (P1) that had GFP-positive cells in their primary motor cortex. Further experiments were performed on these mice i.e., single cell sampling, electrophysiology study, immunohistochemistry (IHC) and neurons morphology at P30.
Series [3] addresses T1, KCNN2 (Mus musculus, UniProt P58390).
T1 construct: Coronal slices containing primary motor cortex (300 μm) were prepared; from tissue; host or cells: acute coronal slices of primary motor cortex from P30 mice, layer II/III pyramidal neurons
Briefly: Electrophysiology: tamapin-sensitive medium afterhyperpolarization (mAHP) in primary motor cortex slices. It counts as cell-based, mice. As to conditions: Tamapin 100 nM. The procedure:
Electrophysiology: Coronal slices containing primary motor cortex (300 μm) were prepared as described above by using a vibrating blade microtome (Leica VT 1000S) from DNA (HSE-FLP0, CAG GFP and RFP FRT, 2 μg/μl each) electroporated mice (P30) brain. The recording chamber was perfused with oxygenated (95% O2/5% CO2) aCSF at 2 ml/min at room temperature. DNA electroporated primary motor cortex neurons were visualized through an infrared charge-coupled device (CCD) camera (C2741-79; Hamamatsu Photonics, Hamamatsu, Japan). The electrodes were filled with internal solution containing (in mM) 130 […], 10 KCl, 10 HEPES, 10 EGTA, 2 MgCl2, 2 Na2-ATP and 0.3 Na-GTP (pH 7.3; electrode resistances: 4-6 MΩ). Cells were recorded in the whole-cell voltage or current clamp mode with a holding potential of −60 mV using a patch-clamp amplifier (700B; Molecular Devices, Sunnyvale, Calif. USA). Series resistance was compensated. The output of the amplifier was digitized using an A/D converter board (Digidata 1322; Molecular Devices) with a sampling rate of 10 kHz, and recorded on a hard disk by data acquisition software (pCLAMP10; Molecular Devices). For the mAHP, cells were held at −60 mV under current clamp mode and action potentials were evoked through injecting positive current. LTP was induced electrically under voltage clamp mode by applying single 1-sec train (100 Hz, 100 μA, Isoflexm, A.M.P.I; CPI, Carl Pisaturo Standord University).
Example 4 KCNN2 Antagonist, Tamapin (100 nM), Affects the Medium Duration Afterhyperpolarization (mAHP) in Reporter-Positive Pyramidal Neurons in M1
(FIGS. 4A-4C, panels a4-c4) Left panels: Cumulative distributions of the amplitude of action potential and the mean amplitude of action potentials (insets)recorded from control (black)- and Tamapin (red)-stimulated neurons. Right panels: Firing frequencies, showing significant increase in RFP^+ neurons. *P=0.016 by Student's t-test.

Series [4] has as its system mice exposed to EtOH prenatally. In words: Accelerating Rotarod motor learning before and after Tamapin injection (i.p.) in mice exposed to EtOH prenatally. It counts as in vivo, CD-1 mice. As to the method:
Mice were tested using the Rotarod test described above on postnatal days 30, 31, 32 and 33 days as shown by the timeline in FIG. 5A. Thus, the mice were tested for the motor learning before and after the Tamapin injection (i.p.).
(In the rotarod test animals must keep their balance on a rotating rod.)

Series [5] has as its system SK2 channels. The following applies: cited from earlier work.

T1 sequence (P58390 266-839): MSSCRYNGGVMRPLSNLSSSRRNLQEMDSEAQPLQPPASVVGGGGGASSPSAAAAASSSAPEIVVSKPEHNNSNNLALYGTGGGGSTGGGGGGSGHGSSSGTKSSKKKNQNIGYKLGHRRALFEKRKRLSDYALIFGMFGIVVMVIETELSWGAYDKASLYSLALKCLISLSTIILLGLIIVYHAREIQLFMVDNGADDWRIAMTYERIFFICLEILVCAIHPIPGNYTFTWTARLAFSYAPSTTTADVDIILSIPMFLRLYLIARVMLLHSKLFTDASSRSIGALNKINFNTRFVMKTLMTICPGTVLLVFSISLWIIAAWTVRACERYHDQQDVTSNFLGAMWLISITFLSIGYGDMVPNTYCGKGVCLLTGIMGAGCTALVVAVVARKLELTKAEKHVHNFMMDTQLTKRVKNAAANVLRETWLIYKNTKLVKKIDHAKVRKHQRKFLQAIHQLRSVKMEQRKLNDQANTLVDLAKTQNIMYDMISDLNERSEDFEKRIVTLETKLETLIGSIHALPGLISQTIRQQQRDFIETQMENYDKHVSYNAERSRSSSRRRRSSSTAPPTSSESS

Consider `CCO` [EtOH, ethanol], for which, in series [1] (exposure of fetal mice in utero vs control, summary of Example 1), the “learning and motor skills” value was “negatively affects”. For the same molecule, the “initial motor coordination (terminal speed at trial 1, FIG. 1D)” value in series [1] (in utero EtOH vs PBS, P30, P=0.579) is “not affected”. Also, the “learning rates (learning index, Rotarod, FIG. 1C)” value in series [1] (in utero exposure, 2 g/kg i.p. to pregnant mice, P30, males and females, vs PBS) is “decreased”. For the same molecule, the “mean Rotarod terminal speed of control mice relative to EtOH-treated mice (FIG. 1F)” value in series [1] (trial 1 and trial 6) is reported as “significantly higher”. Besides, the “effects in brain structure” value in series [2] was “did not induce any obvious effects”.
As for “AFCNLRRCELSCRSLGLLGKCIGEECKCVPY [Tamapin]”, in series [3] (EtOH-exposed RFP+ neurons, P=0.016), the firing frequency result is “increased the firing frequency”. In series [3] (EtOH-exposed RFP+ pyramidal neurons, M1, P30 slices, P=0.009), the “medium afterhyperpolarization (mAHP)” value was “reduced the mAHP”. Moreover, the “effects on mAHP and firing in RFP- neurons” value in series [3] (RFP- neurons in PBS- or EtOH-exposed brains) was “no significant effects”. For the same molecule, the “initial motor coordination (FIG. 5C)” value in series [4] (EtOH-exposed mice) is “not affected”. In series [4] (EtOH-exposed mice, trial 7-12, Tamapin i.p. vs vehicle, P=0.0001), the “motor learning (latency to fall, FIG. 5B)” value is listed as “improved the motor learning”. Besides, in series [4] (PBS-exposed and EtOH-exposed groups, P=0.302 and 0.960), the “latency to fall at the first trial followed by injection (trial 7), vehicle vs Tamapin” value is given as “similar”. Besides, in series [4] (PBS-exposed mice), the “initial motor coordination (FIG. 5F)” value is reported as “not affected”. Further, in series [4] (PBS-exposed mice, trial 7-12, P=0.596), the “effects on motor learning (FIG. 5G)” value was “No effects”. Moreover, the “motor learning / learning rate (FIG. 5D)” value in series [4] (Tamapin-injected EtOH-exposed mice, trial 7-12, P=0.015) was “rescued”. In addition, in series [4] (summary of Example 5), the “effects of fetal exposure to EtOH” value is “significantly reversed”. Also, the “rank order of affinity for SK channels” value in series [5] (functional property of native tamapin) is “SK2 channel>SK3>SK1>SK4”. The SK channel selectivity result in series [5] (known property) was “selective blocker of SK2 channels”.
